pIC50: −log10 of the molar value. Read-outs that look alike come from different tables or passages of the source.
Key:
[1] = molecular target: T1, PERK (Homo sapiens, UniProt Q9NZJ5); assay: PERK biochemical LanthaScreen TR-FRET assay (GFP-eIF2a phosphorylation)
T1 sequence (Q9NZJ5 30-1116): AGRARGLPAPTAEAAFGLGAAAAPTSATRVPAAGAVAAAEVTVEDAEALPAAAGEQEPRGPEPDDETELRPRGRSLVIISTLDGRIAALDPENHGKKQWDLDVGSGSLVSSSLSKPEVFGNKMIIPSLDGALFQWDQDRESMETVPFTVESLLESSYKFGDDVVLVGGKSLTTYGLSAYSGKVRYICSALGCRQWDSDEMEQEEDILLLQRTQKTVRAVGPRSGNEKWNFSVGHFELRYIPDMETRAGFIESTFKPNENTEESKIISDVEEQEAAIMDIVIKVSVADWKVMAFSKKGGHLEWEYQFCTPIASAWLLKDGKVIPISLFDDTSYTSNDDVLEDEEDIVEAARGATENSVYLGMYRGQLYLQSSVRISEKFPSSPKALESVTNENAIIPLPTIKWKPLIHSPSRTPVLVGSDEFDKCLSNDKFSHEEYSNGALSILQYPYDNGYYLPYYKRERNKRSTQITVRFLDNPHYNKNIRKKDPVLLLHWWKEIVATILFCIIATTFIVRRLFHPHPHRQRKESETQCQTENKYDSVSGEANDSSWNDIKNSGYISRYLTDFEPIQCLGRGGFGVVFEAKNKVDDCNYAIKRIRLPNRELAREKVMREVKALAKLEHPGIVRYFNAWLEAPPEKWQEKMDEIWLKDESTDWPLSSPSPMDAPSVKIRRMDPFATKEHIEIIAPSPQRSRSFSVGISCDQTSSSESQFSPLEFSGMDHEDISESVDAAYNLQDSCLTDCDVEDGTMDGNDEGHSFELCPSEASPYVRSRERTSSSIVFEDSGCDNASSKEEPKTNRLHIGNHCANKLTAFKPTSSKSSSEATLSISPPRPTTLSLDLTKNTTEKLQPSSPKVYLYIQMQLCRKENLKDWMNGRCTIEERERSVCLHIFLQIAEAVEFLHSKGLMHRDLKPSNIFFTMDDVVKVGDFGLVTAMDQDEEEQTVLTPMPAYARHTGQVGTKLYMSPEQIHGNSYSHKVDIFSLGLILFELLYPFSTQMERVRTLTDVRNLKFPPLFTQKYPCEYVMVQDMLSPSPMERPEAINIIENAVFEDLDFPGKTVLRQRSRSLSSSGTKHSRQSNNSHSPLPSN
Method: Methods used to evaluate biochemical PERK activity are described and published elsewhere. In brief, biochemical PERK activity is evaluated using a LanthaScreenTM ([…]) TR-FRET assay to detect phosphorylation of a GFP-tagged eIF2a substrate (ThermoFisher). Excitation at […] of a terbium chelate donor fluorophore in an eIF2a antibody results in energy transfer to GFP acceptor fluorophore upon eIF2a phosphorylation by PERK. Reaction buffer was composed of 50 mM HEPES (pH 7.4), 10 mM MgCl2, 1 mM EGTA and 0.01% (v/v) BrijTM-35. Reactions were initiated by the addition of substrate and ATP, followed by incubation for 1 h at RT prior to addition of EDTA and the anti-peIF2a antibody. FRET was measured by an EnVision Plate Reader (PerkinElmer). Data were plotted as percent inhibition along a 10-point 3-fold dilution series of inhibitors. IC50 values were calculated using 4-parameter logistical fitting in XLFit.
(§1) The PERK activity of analog I was evaluated using cell-free biochemical assays. In these assays, PERK phosphorylation of eIF2a was assessed using a FRET-based labelled protein assay. Compounds were then evaluated for cellular activity by quantifying inhibition of eIF2a phosphorylation in HEK293 cells treated with the ER inducer tunicamycin [7].

[2] = system: p-eIF2α; assay: Cellular PERK inhibition: p-eIF2a TR-FRET in tunicamycin-treated HEK293-EGFP-eIF2a cells; type: cell-based
Method: Methods used to evaluate in vitro cellular PERK inhibition are described and published elsewhere. In brief, stableHEK293 cells were created using lentiviral particles harboring a GFP-eIF2a expression vector. Transfectants were selected by puromycin and enriched using fluorescent cell sorting based on GFP expression. HEK293-EGFP-eIF2a cells were plated at 5000 cells/well in 384-well assay plates and incubated overnight. The following day, pyrrolopyrimidine analogs were added to wells using an Echo acoustic dispenser and incubated for 30 min. ER stress was induced by the addition of tunicamycin to the wells at […] for 2 h. Cells were lysed and peIF2a was evaluated using a TR-FRET system, as described above.
as §1

[3] = cell-free TR-FRET, GFP-eIF2a substrate, read-out: PERK IC50
[4] = Homo sapiens, HEK293 cells, tunicamycin-induced ER stress, read-out: p-eIF2α IC50
[5] = bound stated, read-out: biochemical potency
[6] = bound stated, read-out: cellular potency

pIC50 [1, 3] | pIC50 [2, 4] | pIC50 [1, 5] | pIC50 [2, 6] | SMILES
6.99 | 6.52 | – | – | Cc1nc(N)c2c(-c3ccc(NC(=O)[C@H](O)c4ccccc4F)cc3C)cn(C)c2n1 [Compound 25]
6.46 | 5.69 | – | – | Cc1nc(N)c2c(-c3ccc(NC(=O)C(O)c4ccccc4C(F)(F)F)cc3C)cn(C)c2n1 (stereo not drawn) [Compound 27]
7.85 | 7.08 | – | – | Cc1cccc([C@@H](O)C(=O)Nc2ccc(-c3cn(C)c4nc(C)nc(N)c34)c(C)c2)c1 [Compound 30]
8.52 | 8.11 | – | – | C#Cc1cccc([C@@H](O)C(=O)Nc2ccc(-c3cn(C)c4nc(C)nc(N)c34)c(C)c2)c1 [Compound 32]
8.52 | 7.85 | – | – | Cc1nc(N)c2c(-c3ccc(NC(=O)[C@H](O)c4cccc(Br)c4)cc3C)cn(C)c2n1 [Compound 33]
8.23 | 7.68 | – | – | Cc1nc(N)c2c(-c3ccc(NC(=O)[C@H](O)c4cccc(C(F)F)c4)cc3C)cn(C)c2n1 [Compound 34]
8.23 | 7.77 | – | – | Cc1nc(N)c2c(-c3ccc(NC(=O)[C@H](O)c4cccc(C5CC5)c4)cc3C)cn(C)c2n1 [Compound 35]
8.10 | 6.49 | – | – | Cc1nc(N)c2c(-c3ccc(NC(=O)[C@H](O)c4cccc(C#N)c4)cc3C)cn(C)c2n1 [Compound 36]
8.54 | 8.07 | – | – | Cc1nc(N)c2c(-c3ccc(NC(=O)[C@H](O)c4cc(F)cc(Cl)c4)cc3C)cn(C)c2n1 [Compound 40]
8.38 | 7.49 | – | – | Cc1nc(N)c2c(-c3ccc(NC(=O)[C@H](O)c4cc(F)cc(C#N)c4)cc3C)cn(C)c2n1 [Compound 42]
7.28 | 6.25 | – | – | Cc1nc(N)c2c(-c3ccc(NC(=O)[C@H](O)c4cncc(F)c4)cc3C)cn(C)c2n1 [Compound 43]
7.77 | 6.89 | – | – | Cc1nc(N)c2c(-c3ccc(NC(=O)[C@H](O)c4cncc(Cl)c4)cc3C)cn(C)c2n1 [Compound 44]
7.72 | 6.78 | – | – | Cc1nc(N)c2c(-c3ccc(NC(=O)[C@H](O)c4cncc(C(F)(F)F)c4)cc3C)cn(C)c2n1 [Compound 45]
8.29 | 7.96 | > 8.30 | > 7.82 | Cc1nc(N)c2c(-c3ccc(NC(=O)[C@H](O)c4cccc(C(F)(F)F)c4)cc3F)cn(C)c2n1 [Compound 47, (R)-N-(4-(4-amino-2,7-dimethyl-7H-pyrrolo[2,3-d]pyrimidin-5-yl)-3-fluorophenyl)-2-hydroxy-2-(3-(trifluoromethyl)phenyl)acetamide]
8.57 | 7.21 | – | – | Cc1nc(N)c2c(-c3ccc(NC(=O)[C@H](O)c4cc(F)cc(C(F)(F)F)c4)cc3F)cn(C)c2n1 [Compound 51]
8.57 | 7.68 | – | – | Cc1nc(N)c2c(-c3ccc(NC(=O)[C@H](O)c4cccc(C(F)(F)F)c4)cc3Cl)cn(C)c2n1 [Compound 54]
8.07 | 6.69 | – | – | Cc1nc(N)c2c(-c3ccc(NC(=O)[C@H](O)c4cccc(F)c4)cc3C(F)(F)F)cn(C)c2n1 [Compound 58]

The remaining lines, values behind:

SMILES | pIC50 [1, 3] | pIC50 [2, 4] | pIC50 [1, 5] | pIC50 [2, 6]
Cc1cc(NC(=O)[C@@H](O)c2cccc(F)c2)ccc1-c1cn(C)c2ncnc(N)c12 [Compound 12, (S)-N-(4-(4-amino-7-methyl-7H-pyrrolo[2,3-d]pyrimidin-5-yl)-3-methylphenyl) -2-(3-fluorophenyl) -2-hydroxyacetamide] | 8.11 | 7.24 | – | –
Cc1cc(NC(=O)[C@H](O)c2ccccc2)ccc1-c1cn(C)c2ncnc(N)c12 [Compound 13] | 8.74 | 7.64 | – | –
Cc1cc(NC(=O)Cc2ccccc2)ccc1-c1cn(C)c2ncnc(N)c12 [Compound 14] | 8.28 | 7.39 | – | –
Cc1cc(NC(=O)CCc2ccccc2)ccc1-c1cn(C)c2ncnc(N)c12 [Compound 15] | 6.90 | 5.71 | – | –
Cc1cc(NC(=O)c2ccccc2)ccc1-c1cn(C)c2ncnc(N)c12 [Compound 16] | 6.77 | 5.40 | – | –
Cc1cc(NC(=O)C(F)(F)c2ccccc2)ccc1-c1cn(C)c2ncnc(N)c12 [Compound 17] | 6.52 | 6.27 | – | –
Cc1cc(NC(=O)Oc2ccccc2)ccc1-c1cn(C)c2ncnc(N)c12 [Compound 18] | 5.40 | < 5.00 | – | –
Cc1cc(NC(=O)Nc2ccccc2)ccc1-c1cn(C)c2ncnc(N)c12 [Compound 19] | 7.68 | 6.68 | – | –
Cc1cc(NC(=O)N(C)c2ccccc2)ccc1-c1cn(C)c2ncnc(N)c12 [Compound 20] | 6.97 | 5.76 | – | –
CO[C@@H](C(=O)Nc1ccc(-c2cn(C)c3ncnc(N)c23)c(C)c1)c1ccccc1 [Compound 21] | 7.85 | 6.76 | – | –
Cc1cc(NC(=O)C(C)(O)c2ccccc2)ccc1-c1cn(C)c2ncnc(N)c12 (stereo not drawn) [Compound 22] | 7.25 | 6.74 | – | –
Cc1cc(NC(=O)[C@H](N)c2ccccc2)ccc1-c1cn(C)c2ncnc(N)c12 [Compound 23] | 7.48 | 6.24 | – | –
Cc1nc(N)c2c(-c3ccc(NC(=O)[C@H](O)c4ccccc4Cl)cc3C)cn(C)c2n1 [Compound 29] | 6.97 | 6.15 | – | –
Cc1nc(N)c2c(-c3ccc(NC(=O)C(O)c4ccccc4C)cc3C)cn(C)c2n1 (stereo not drawn) [Compound 31] | 7.59 | 6.91 | – | –
Cc1nc(N)c2c(-c3ccc(NC(=O)[C@H](O)c4cccc(S(C)(=O)=O)c4)cc3C)cn(C)c2n1 [Compound 37] | < 6.00 | < 5.00 | – | –
Cc1nc(N)c2c(-c3ccc(NC(=O)[C@H](O)c4cccc(F)c4)cc3F)cn(C)c2n1 [Compound 46] | 8.66 | 7.39 | – | –
Cc1cccc([C@@H](O)C(=O)Nc2ccc(-c3cn(C)c4nc(C)nc(N)c34)c(F)c2)c1 [Compound 49] | 8.96 | 7.77 | – | –
CCc1cccc([C@@H](O)C(=O)Nc2ccc(-c3cn(C)c4nc(C)nc(N)c34)c(F)c2)c1 [Compound 50] | 9.05 | 7.60 | – | –
Cc1cc(F)cc([C@@H](O)C(=O)Nc2ccc(-c3cn(C)c4nc(C)nc(N)c34)c(F)c2)c1 [Compound 52] | 8.96 | 7.96 | > 8.30 | > 7.82
Cc1nc(N)c2c(-c3ccc(NC(=O)[C@H](O)c4cccc(F)c4)cc3Cl)cn(C)c2n1 [Compound 53] | 7.77 | 7.25 | – | –
Cc1nc(N)c2c(-c3ccc(NC(=O)[C@H](O)c4cccc(Cl)c4)cc3Cl)cn(C)c2n1 [Compound 55] | 8.80 | 7.77 | – | –
Cc1cccc([C@@H](O)C(=O)Nc2ccc(-c3cn(C)c4nc(C)nc(N)c34)c(Cl)c2)c1 [Compound 56] | 8.39 | 7.74 | – | –
CCc1cccc([C@@H](O)C(=O)Nc2ccc(-c3cn(C)c4nc(C)nc(N)c34)c(Cl)c2)c1 [Compound 57] | – | 7.85 | > 8.30 | > 7.82
CCc1cc(NC(=O)[C@H](O)c2cccc(F)c2)ccc1-c1cn(C)c2nc(C)nc(N)c12 [Compound 59] | 8.40 | 7.39 | – | –

— paper PMC9611727, “Optimization of a Novel Mandelamide-Derived Pyrrolopyrimidine Series of PERK Inhibitors” (Pharmaceutics, 2022)
